Results reported in patent publication US4308256A, “Method of inducing analgesia” (American Home Products Corporation, priority 1980, dated 1981).

Tests used:
male Charles River rats = test: D'Amour-Smith rat tail-flick procedure (radiant heat, 8 second cut-off), intraventricular injection; assay type: in vivo
Protocol: Intraventricular cannulae, made of 27-gauge stainless steel tubing, are implanted in 300-400 g. male Charles River rats under pentobarbital anesthesia. After a recovery period of at least one week, the rats are restrained in a wire-mesh cylindrical chamber so that the tip of the tail can be positioned at the focal point of a radiant heat source. After an acclimatistation period of 5 minutes, the lamp is turned on and an electric clock activated. Movement of the tip of the tail exposes a photocell to the lamp, which turns off the thermal stimulus and stops the clock. If a rat fails to move its tail within 8 seconds, the heat is automatically turned off to prevent blistering. The intensity of the lamp is adjusted in each case to produce at least three baseline tail-flick latencies of 2.5-4.5 seconds. Tests are initially made every 2 minutes, then every 5 minutes and finally every 15 minutes.
Initially, using the above outlined procedure, the effects of intraventricularly administered leucine-enkephalin are tested in rats according to the above procedure.
The rat tail flick procedure is repeated, first by the simultaneous intraventricular injection of both leucine-enkephalin and bestatin and then by the initial injection of bestatin followed one hour later by the injection of leucine-enkephalin.
The above procedure is repeated again, however, the bestatin is administered first and then one hour later the leucine-enkephalin is administered.
The effects of bestatin alone are tested in rats according to the rat tail flick procedure.

aminopeptidase B = aminopeptidase B (Homo sapiens, UniProt Q9H4A4); details: cited from earlier work
Sequence of aminopeptidase B (Q9H4A4 whole entry, species assumed): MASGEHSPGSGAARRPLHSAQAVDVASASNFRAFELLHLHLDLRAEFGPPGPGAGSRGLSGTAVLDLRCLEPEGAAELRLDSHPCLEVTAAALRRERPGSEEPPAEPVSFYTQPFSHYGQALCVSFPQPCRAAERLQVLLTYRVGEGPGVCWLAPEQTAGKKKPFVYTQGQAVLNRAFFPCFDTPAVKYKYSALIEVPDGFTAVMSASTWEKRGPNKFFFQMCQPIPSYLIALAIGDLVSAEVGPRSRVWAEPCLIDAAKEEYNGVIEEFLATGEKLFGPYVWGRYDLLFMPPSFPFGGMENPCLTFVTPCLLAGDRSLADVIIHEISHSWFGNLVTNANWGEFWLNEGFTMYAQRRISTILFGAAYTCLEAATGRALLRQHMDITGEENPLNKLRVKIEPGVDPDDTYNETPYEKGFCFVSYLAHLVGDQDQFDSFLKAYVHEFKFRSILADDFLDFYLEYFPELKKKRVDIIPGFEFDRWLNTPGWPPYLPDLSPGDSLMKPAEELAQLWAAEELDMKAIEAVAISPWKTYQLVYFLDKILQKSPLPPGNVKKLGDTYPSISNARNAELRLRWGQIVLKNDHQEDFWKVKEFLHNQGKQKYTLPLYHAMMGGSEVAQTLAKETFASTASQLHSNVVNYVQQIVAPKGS

leucine aminopeptidase = details: cited from earlier work

CC(C)C[C@H](NC(=O)[C@@H](O)[C@H](N)Cc1ccccc1)C(=O)O [bestatin, [(2S,3R)-3-amino-2-hydroxy-4-phenylbutanoyl]-L-leucine] showed a Tail-flick latency (male Charles River rats; 400 μg bestatin alone into lateral ventricle, Rat 2, 28 min) of 8.00 s, a Tail-flick latency (male Charles River rats; 400 μg bestatin alone into lateral ventricle, Rat 2, 30 min) of 8.00 s and a Tail-flick latency (male Charles River rats; 400 μg bestatin alone into lateral ventricle, Rat 2, 35 min) of 8.00 s. The Tail-flick latency (male Charles River rats; 400 μg bestatin alone into lateral ventricle, Rat 2, 40 min) was 8.00 s, the Tail-flick latency (male Charles River rats; 400 μg bestatin alone into lateral ventricle, Rat 2, 45 min) was 8.00 s and the Tail-flick latency (male Charles River rats; 400 μg bestatin alone into lateral ventricle, Rat 2, 50 min) was 8.00 s. For the same compound, the Tail-flick latency (male Charles River rats; 400 μg bestatin alone into lateral ventricle, Rat 2, 55 min) was 8.00 s, the Tail-flick latency (male Charles River rats; 400 μg bestatin alone into lateral ventricle, Rat 2, 60 min) was 8.00 s and the Tail-flick latency (male Charles River rats; 400 μg bestatin alone into lateral ventricle, Rat 2, 75 min) was 8.00 s. It also gave a Tail-flick latency (male Charles River rats; 400 μg bestatin alone into lateral ventricle, Rat 2, 90 min) of 8.00 s, a Tail-flick latency (male Charles River rats; 400 μg bestatin alone into lateral ventricle, Rat 2, 105 min) of 8.00 s and a Tail-flick latency (male Charles River rats; 400 μg bestatin alone into lateral ventricle, Rat 2, 120 min) of 8.00 s. The Tail-flick latency (male Charles River rats; 400 μg bestatin alone into lateral ventricle, Rat 2, 135 min) was 8.00 s, the Tail-flick latency (male Charles River rats; 400 μg bestatin alone into lateral ventricle, Rat 2, 150 min) was 8.00 s and the Tail-flick latency (male Charles River rats; 400 μg bestatin alone into lateral ventricle, Rat 2, 165 min) was 8.00 s. The Tail-flick latency (male Charles River rats; 400 μg bestatin alone into lateral ventricle, Rat 2, 180 min) was 8.00 s, the Tail-flick latency (male Charles River rats; 400 μg bestatin alone into lateral ventricle, Rat 2, 195 min) was 8.00 s and the Tail-flick latency (male Charles River rats; 400 μg bestatin alone into lateral ventricle, Rat 2, 210 min) was 8.00 s. It also gave a Tail-flick latency (male Charles River rats; 400 μg bestatin alone into lateral ventricle, Rat 2, 225 min) of 8.00 s, a Tail-flick latency (male Charles River rats; 400 μg bestatin alone into lateral ventricle, Rat 2, 240 min) of 8.00 s and a Tail-flick latency (male Charles River rats; 400 μg bestatin alone into lateral ventricle, Rat 2, 255 min) of 8.00 s. It also gave a Tail-flick latency (male Charles River rats; 400 μg bestatin alone into lateral ventricle, Rat 2, 270 min) of 8.00 s, a Tail-flick latency (male Charles River rats; 400 μg bestatin alone into lateral ventricle, Rat 2, 285 min) of 8.00 s and a Tail-flick latency (male Charles River rats; 400 μg bestatin alone into lateral ventricle, Rat 2, 300 min) of 5.19 s. The Tail-flick latency (male Charles River rats; 400 μg bestatin alone into lateral ventricle, Rat 2, 315 min) was 4.32 s, the Tail-flick latency (male Charles River rats; 400 μg bestatin alone into lateral ventricle, Rat 2, 330 min) was 4.11 s and the Tail-flick latency (male Charles River rats; 400 μg leucine-enkephalin + 200 μg bestatin injected together into lateral ventricle, 1 rat, 2 min) was 7.31 s. The Tail-flick latency (male Charles River rats; 400 μg leucine-enkephalin + 200 μg bestatin injected together into lateral ventricle, 1 rat, 4 min) was 7.56 s, the Tail-flick latency (male Charles River rats; 400 μg leucine-enkephalin + 200 μg bestatin injected together into lateral ventricle, 1 rat, 6 min) was 5.78 s and the Tail-flick latency (male Charles River rats; 400 μg leucine-enkephalin + 200 μg bestatin injected together into lateral ventricle, 1 rat, 8 min) was 6.69 s. For the same compound, the Tail-flick latency (male Charles River rats; 400 μg leucine-enkephalin + 200 μg bestatin injected together into lateral ventricle, 1 rat, 10 min) was 6.99 s, the Tail-flick latency (male Charles River rats; 400 μg leucine-enkephalin + 200 μg bestatin injected together into lateral ventricle, 1 rat, 12 min) was 8.00 s and the Tail-flick latency (male Charles River rats; 400 μg leucine-enkephalin + 200 μg bestatin injected together into lateral ventricle, 1 rat, 14 min) was 8.00 s. The Tail-flick latency (male Charles River rats; 400 μg leucine-enkephalin + 200 μg bestatin injected together into lateral ventricle, 1 rat, 16 min) was 6.50 s, the Tail-flick latency (male Charles River rats; 400 μg leucine-enkephalin + 200 μg bestatin injected together into lateral ventricle, 1 rat, 18 min) was 5.31 s and the Tail-flick latency (male Charles River rats; 400 μg leucine-enkephalin + 200 μg bestatin injected together into lateral ventricle, 1 rat, 20 min) was 2.31 s. It also gave a Tail-flick latency (male Charles River rats; 400 μg leucine-enkephalin + 200 μg bestatin injected together into lateral ventricle, 1 rat, 22 min) of 8.00 s, a Tail-flick latency (male Charles River rats; 400 μg leucine-enkephalin + 200 μg bestatin injected together into lateral ventricle, 1 rat, 24 min) of 6.23 s and a Tail-flick latency (male Charles River rats; 400 μg leucine-enkephalin + 200 μg bestatin injected together into lateral ventricle, 1 rat, 26 min) of 8.00 s. It also gave a Tail-flick latency (male Charles River rats; 400 μg leucine-enkephalin + 200 μg bestatin injected together into lateral ventricle, 1 rat, 28 min) of 8.00 s, a Tail-flick latency (male Charles River rats; 400 μg leucine-enkephalin + 200 μg bestatin injected together into lateral ventricle, 1 rat, 30 min) of 8.00 s and a Tail-flick latency (male Charles River rats; 400 μg leucine-enkephalin + 200 μg bestatin injected together into lateral ventricle, 1 rat, 32 min) of 4.90 s. For the same compound, the Tail-flick latency (male Charles River rats; 400 μg leucine-enkephalin + 200 μg bestatin injected together into lateral ventricle, 1 rat, 34 min) was 8.00 s, the Tail-flick latency (male Charles River rats; 400 μg leucine-enkephalin + 200 μg bestatin injected together into lateral ventricle, 1 rat, 36 min) was 8.00 s and the Tail-flick latency (male Charles River rats; 400 μg leucine-enkephalin + 200 μg bestatin injected together into lateral ventricle, 1 rat, 38 min) was 4.75 s. For the same compound, the Tail-flick latency (male Charles River rats; 400 μg leucine-enkephalin + 200 μg bestatin injected together into lateral ventricle, 1 rat, 40 min) was 8.00 s, the Tail-flick latency (male Charles River rats; 400 μg leucine-enkephalin + 200 μg bestatin injected together into lateral ventricle, 1 rat, 42 min) was 3.21 s and the Tail-flick latency (male Charles River rats; 400 μg leucine-enkephalin + 200 μg bestatin injected together into lateral ventricle, 1 rat, 44 min) was 3.29 s. For the same compound, the Tail-flick latency (male Charles River rats; 400 μg leucine-enkephalin + 200 μg bestatin injected together into lateral ventricle, 1 rat, 46 min) was 2.47 s, the “Analgesia induced by bestatin alone” value (male Charles River rats; 400 μg level, lateral ventricle, rats) was “very potent analgesia” and the “Effect on the analgesic effects of leucine-enkephalin” value (male Charles River rats; bestatin administered one hour prior to leucine-enkephalin, intraventricular, rat) was “can be extended by bestatin”. The “Effect on the analgesic effect of leucine-enkephalin” value (male Charles River rats; bestatin given simultaneously with leucine-enkephalin, intraventricular, rat) was “very significantly extend the analgesic effect of leucine-enkephalin”, the “Inhibition of aminopeptidase B” value (aminopeptidase B) was “inhibitors” and the “Inhibition of leucine aminopeptidase” value (leucine aminopeptidase) was “inhibitors”.
